This is an account of results in publication PMC10349806 (Nature Communications, 2023).

One experiment deals with T1, PfCRT variant D137N (Plasmodium falciparum, UniProt Q9N623, A220S/D137N/I356T/K76T/M74I/N326S/N75E/Q271E/R371I).
T1 sequence (Q9N623 1-424 M74I/N75E/K76T/D137N/A220S/Q271E/N326S/I356T/R371I): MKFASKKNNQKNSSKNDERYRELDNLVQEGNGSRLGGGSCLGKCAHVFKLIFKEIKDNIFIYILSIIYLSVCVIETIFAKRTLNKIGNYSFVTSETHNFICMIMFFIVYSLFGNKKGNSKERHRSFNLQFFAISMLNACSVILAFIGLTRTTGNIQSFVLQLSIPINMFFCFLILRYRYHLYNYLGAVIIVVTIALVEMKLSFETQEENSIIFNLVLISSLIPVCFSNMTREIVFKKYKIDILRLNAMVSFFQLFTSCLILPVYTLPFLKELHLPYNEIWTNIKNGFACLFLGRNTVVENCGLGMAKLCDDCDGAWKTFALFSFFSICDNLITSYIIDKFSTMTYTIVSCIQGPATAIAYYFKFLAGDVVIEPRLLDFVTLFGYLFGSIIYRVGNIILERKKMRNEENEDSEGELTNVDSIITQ
Kind of experiment: CQ uptake assay, oocytes expressing D137N. It is filed as cell-based. As to the method:
(§1) Site-directed mutagenesis of PfCRT^Dd2 was performed as described using the megaprimer method with overlap extension[21],[54]. The primer pairs used are listed in Supplementary Table 6. Please note that a codon-optimized and oocyte-adapted version of PfCRT^Dd2 was used[22] (Supplementary Fig. 16). The resulting DNA fragment was cloned into the SP64T expression vector and verified by sequencing.
(§2) Oocytes were obtained as described previously. Briefly, adult (>2 years old) female X. laevis frogs (NASCO) were anesthetized in a cooled solution of ethyl 3-amino benzoate methanesulfonate (0.1%, w/v), followed by a surgical removal of parts of the ovary. The ovary lobes were carefully dissected and small pieces of oocytes were incubated in Ca^2+-free ND96 buffer (96 mM NaCl, 2 mM KCl, 1 mM MgCl2 buffered with 5 mM HEPES/NaOH, pH 7.5) supplemented with collagenase D (0.1%, w/v; Roche), BSA (0.5%, w/v), and 9 mm Na2HPO4 at 18 °C for 14-16 h while gentle shaking. After incubation, the oocytes were carefully washed several times with ND96 buffer (96 mM NaCl, 2 mM KCl, 1.8 mM CaCl2, 1 mM MgCl2 buffered with 5 mM HEPES/NaOH, pH 7.5) supplemented with 100 mg l^−1 gentamycin). Defolliculated and healthy-looking stage V-VI oocytes were manually selected for RNA microinjection. The RNA was generated as following: The codon-optimized sequences of PfCRT variants were cloned into the pSP64T expression vector. After vector linearization using the restriction endonucleases BamHI or SalI (New England Biolabs), transcription was performed using the in vitro SP6 mMessage mMachine Kit (Ambion)[34]. The obtained RNA was kept at −80 °C and diluted with nuclease-free water to a concentration of 0.6 μg μl^−1. Precision-bore glass capillary tubes (3.5-inch glass capillaries; Drummond Scientific Co.) were pulled on a vertical puller (P-87 Flaming/Brown micropipette puller, Sutter Instrument Co.), graduated, and placed on a microinjector (Nanoject II Auto-Nanoliter Injector, Drummond Scientific Co.). 50 nl of nuclease-free water alone (control oocytes) or 50 nl of 0.6 μg μl^−1 RNA were injected under stereomicroscopic control. Injected oocytes were incubated for 46–72 h at 18 °C with twice-daily buffer changes before usage in experiments.
(§3) Drug uptake assays were performed as described previously[21],[22],[24],[34]. […] The direction of radio-labeled drug transport is here from the mostly acidic extracellular solution (pH 4.5 or 6.0, as indicated) into the oocyte cytosol (pH ∼ 7.2), which corresponds to the efflux of drug from the acidic digestive vacuole (pH 5.2) into the parasite cytoplasm (pH 7.2). The topology of PfCRT in the oolemma is such that both the N- and C-terminus face the extracellular milieu[3],[22]. In the parasite, the N- and C-terminus face the lumen of the digestive vacuole. CQ uptake kinetics were performed by incubating oocytes in ND96 buffer adjusted to a pH of 4.5, 5.0, 5.5, or 6.0 and supplemented with 50 nM [^3H]CQ and one of 7 different CQ concentrations (10 µM, 50 µM, 100 µM, 200 µM, 300 µM, 400 µM, 500 µM CQ). The reaction was stopped at the 60 min time point, which is in the linear uptake range[22],[34] (Supplementary Fig. 17). For determination of the amount of drug uptake for each oocyte, the reaction medium was removed and the oocytes were washed three times with 2 ml of ice-cold ND96 buffer. Each oocyte was individually transferred to a scintillation vial containing 5% sodium dodecyl sulfate (200 μl) for lysis. The radioactivity of each sample was measured using a liquid scintillation analyzer Tri-Carb 4910 TR (PerkinElmer). Oocytes that were injected with water instead of RNA were analyzed in parallel, representing the uptake of a drug by diffusion and/or endogenous permeation pathways. The resulting value represents the “background“ level of drug accumulation in oocytes (in-depth discussion in[22]). […]

The test system of a further experiment is PfCRT variant Y177A. In words: CQ uptake assay, oocytes expressing Y177A. It is filed as cell-based, Plasmodium falciparum. On the procedure: as §1, §2
Drug uptake assays were performed as described previously[21],[22],[24],[34]. […] The direction of radio-labeled drug transport is here from the mostly acidic extracellular solution (pH 4.5 or 6.0, as indicated) into the oocyte cytosol (pH ∼ 7.2), which corresponds to the efflux of drug from the acidic digestive vacuole (pH 5.2) into the parasite cytoplasm (pH 7.2). The topology of PfCRT in the oolemma is such that both the N- and C-terminus face the extracellular milieu[3],[22]. In the parasite, the N- and C-terminus face the lumen of the digestive vacuole. CQ uptake kinetics were performed by incubating oocytes in ND96 buffer adjusted to a pH of 4.5, 5.0, 5.5, or 6.0 and supplemented with 50 nM [^3H]CQ and one of 7 different CQ concentrations (10 µM, 50 µM, 100 µM, 200 µM, 300 µM, 400 µM, 500 µM CQ). The reaction was stopped at the 60 min time point, which is in the linear uptake range[22],[34] (Supplementary Fig. 17). […] The radioactivity of each sample was measured using a liquid scintillation analyzer Tri-Carb 4910 TR (PerkinElmer). Oocytes that were injected with water instead of RNA were analyzed in parallel, representing the uptake of a drug by diffusion and/or endogenous permeation pathways. […]

In the next experiment the test system is PfCRT variant E207N. In words: CQ uptake assay, oocytes expressing E207N. It is filed as cell-based, Plasmodium falciparum. As to the method: as §1, §2, §3
Setting [1] is: D137N, 50 µM CQ, 1 h, mean ± SEM.
The mark [2] stands for this setting: pH 4.5, single replicates, Fig 1d left.
[3] abbreviates: pH 6.0, single replicates, Fig 1d left.
Setting [4] is: Y177A, 50 µM CQ, 1 h, mean ± SEM.
The mark [5] stands for this setting: E207N, 50 µM CQ, 1 h, mean ± SEM.

Each structure is given as a SMILES string. Values joined by “and” are separate entries in the source; they are usually repeats but may differ in a detail not shown here. Equal entries are not always repeated.

In the case of `CCN(CC)CCCC(C)Nc1ccnc2cc(Cl)ccc12` (centres unmarked) [CQ, chloroquine], the entries for the “Activity at pH 4.5” value on PfCRT variant D137N (setting [1]), in the experiment on PfCRT variant Y177A (setting [4]) and with PfCRT variant E207N (setting [5]) were 0.57 ± 0.14 pmol h-1 oocyte-1, 1.25 ± 0.21 pmol h-1 oocyte-1 and 2.54 ± 0.34 pmol h-1 oocyte-1, respectively. The “Activity at pH 6.0” value at PfCRT variant D137N (setting [1]) amounted to 0.95 ± 0.18 pmol h-1 oocyte-1; in the experiment on PfCRT variant Y177A (setting [4]), 2.94 ± 0.26 pmol h-1 oocyte-1; in the experiment on PfCRT variant E207N (setting [5]) it was 2.81 ± 0.43 pmol h-1 oocyte-1. Moreover, the R-value at PfCRT variant D137N (D137N, CQ transport at pH 4.5 / pH 6.0) is 0.59 ± 0.04; in the experiment on PfCRT variant Y177A (Y177A, CQ transport at pH 4.5 / pH 6.0) it was 0.44 ± 0.11; with PfCRT variant E207N (E207N, CQ transport at pH 4.5 / pH 6.0), 0.93 ± 0.07. Further, the “D137N transport activity pH 4.5” value on PfCRT variant D137N (setting [2]) was 0.77 pmol oocyte-1 h-1 and 0.37 pmol oocyte-1 h-1 and 0.63 pmol oocyte-1 h-1. The “D137N R-value” at PfCRT variant D137N (pH 4.5 vs pH 6.0, Fig 1d left) is 0.64 and 0.53 and 0.59. The “D137N transport activity pH 6.0” value on PfCRT variant D137N (setting [3]) is 1.20 pmol oocyte-1 h-1 and 0.70 pmol oocyte-1 h-1 and 1.07 pmol oocyte-1 h-1. In the experiment with PfCRT variant Y177A (setting [2]), the “Y177A transport activity pH 4.5” value is 0.79 pmol oocyte-1 h-1 and 1.73 pmol oocyte-1 h-1 and 1.60 pmol oocyte-1 h-1 and 0.87 pmol oocyte-1 h-1. For the same compound, the “Y177A transport activity pH 6.0” value in the experiment on PfCRT variant Y177A (setting [3]) is 2.11 pmol oocyte-1 h-1 and 3.29 pmol oocyte-1 h-1 and 2.90 pmol oocyte-1 h-1 and 3.47 pmol oocyte-1 h-1. For the same compound, the “E207N transport activity pH 4.5” value in the experiment on PfCRT variant E207N (pH 4.5, individual replicates, Fig 6b) is 3.35 pmol oocyte-1 h-1 and 2.62 pmol oocyte-1 h-1 and 1.45 pmol oocyte-1 h-1 and 2.72 pmol oocyte-1 h-1. For the same compound, in the experiment on PfCRT variant E207N (pH 6.0, individual replicates, Fig 6b), the “E207N transport activity pH 6.0” value was 3.09 pmol oocyte-1 h-1 and 3.00 pmol oocyte-1 h-1 and 1.41 pmol oocyte-1 h-1 and 3.72 pmol oocyte-1 h-1. For the same compound, the E207NR-value in the experiment with PfCRT variant E207N (ratio of activity pH 4.5 / pH 6.0) is 1.08 and 0.87 and 1.03 and 0.73.
